Measured values reported in US20120010161A1, “NOVEL AZAPEPTIDE OR AZAPEPTIDOMIMETIC COMPOUNDS INHIBITING BCRP AND/OR P-GP” (CENTRE NATIONAL DE LA RECHERCHE SCIENTIFIQUE, priority 2009, published 2012).
“Also recorded” adds a separate entry of the source.

Tests used:
ABCG2 [1] = biological target: T1, ABCG2 (Homo sapiens, UniProt Q9UNQ0); assay: Type of inhibition: mitoxantrone efflux by ABCG2 at varied substrate and inhibitor concentrations (FIG. 2); format: cell-based; parameters: expressed in transfected cells; host or cells: HEK-293 transfected with pcDNA3.1-ABCG2; settings: for type of inhibition of ABCG2: mitoxantrone 0 to 20 μM, inhibitor 0 to 20 μM
T1 sequence (Q9UNQ0 1-655): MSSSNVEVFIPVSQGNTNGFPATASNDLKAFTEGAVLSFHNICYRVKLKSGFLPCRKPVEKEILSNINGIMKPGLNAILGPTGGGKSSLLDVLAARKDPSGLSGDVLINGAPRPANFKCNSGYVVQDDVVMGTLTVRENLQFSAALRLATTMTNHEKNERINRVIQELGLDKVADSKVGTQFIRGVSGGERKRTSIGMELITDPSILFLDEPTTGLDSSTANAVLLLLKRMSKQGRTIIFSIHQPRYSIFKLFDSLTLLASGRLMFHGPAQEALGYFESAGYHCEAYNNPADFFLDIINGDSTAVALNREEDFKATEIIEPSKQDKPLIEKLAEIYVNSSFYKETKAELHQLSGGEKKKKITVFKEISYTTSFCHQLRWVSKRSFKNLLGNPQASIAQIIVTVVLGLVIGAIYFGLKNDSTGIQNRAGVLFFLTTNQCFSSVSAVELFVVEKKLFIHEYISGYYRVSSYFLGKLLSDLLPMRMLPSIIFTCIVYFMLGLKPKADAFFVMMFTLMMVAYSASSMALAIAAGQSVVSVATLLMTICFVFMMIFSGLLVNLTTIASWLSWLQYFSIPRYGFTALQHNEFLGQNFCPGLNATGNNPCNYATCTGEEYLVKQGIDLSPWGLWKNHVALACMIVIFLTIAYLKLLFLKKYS
Description: The efflux of mitoxantrone by ABCG2 was measured at substrate concentrations ranging from 0 to 20 μM (panels A-C) in the presence or absence of fixed concentrations of compound (IA.2) in a range from 0 to 20 μM (panels D-E). In FIG. 2, the results obtained by varying the […] concentration are presented as a representation, which is either direct in panel A or of Lineweaver-Burke form in panel B or of Eadie-Hofstee form in panel C. The results obtained by varying the […] concentration are presented in linear (panel D) or logarithmic (panel E) x-axis scale. The curves were adjusted by means of the SigmaPlot software.
This is confirmed by the Lineweaver-Burke and Eadie-Hofstee representations presented, respectively, in FIG. 2B and FIG. 2C. The representations of these two graphs are characteristic of this type of inhibition. The inhibition constant K of compound (IA.2) is estimated as about 1 μM from the adjustment of the points of FIG. 2D or FIG. 2E.

NIH-3T3 cells = assay: Cytotoxicity on cell growth, MTT test; format: cell-based; settings: 72 hours
Description: The cells are seeded (10 000 cells/well) in 96-well plates and incubated for 24 hours at 37° C. under 5% CO2. Varied concentrations of mitoxantrone (from 0 to 20 μM in a constant final volume of 100 μL) are then added with an equal volume of each of the test compounds. The cells are then left to divide for 72 hours. The cytotoxicity is evaluated colorimetrically with 3-(4,5-dimethylthiazol-2-yl)-2,5-diphenyltetrazolium bromide (MTT).
Increasing concentrations of compound (IB.1) are applied to NIH-3T3 cells expressing or not expressing ABCB1, and whose residual vitality is evaluated after 72 hours of treatment by an MTT test. The results are illustrated in FIG. 9, in which the cells expressing ABCB1 are represented by empty circles, and those not expressing it by solid circles. […] It increases by 30-40% thereafter, but however remains limited to this value, up to a concentration equivalent to 40 times its IC50, whether or not ABCB1 is expressed.

ABCG2 [2] = assay: Estimation of the level of expression of ABCG2 (western blot); format: cell-based, human; settings: 5 μM, 3 h to 72 h
Description: Estimation of the level of expression of ABCG2. The cells HEK293 pcDNA3.1 or HEK293 pcDNA3.1 BCRP are seeded in sixteen 6 cm^2 Petri dishes and incubated for 24 hours at 37° C. under 5% CO2. After this incubation, the various wells are supplemented with 30 μL either of DMSO (controls) or of compound IA.2 dissolved in DMSO, corresponding to a final concentration after dilution of 5 μM. After 3 h, 24 h, 48 h or 72 h of incubation, the cells are trypsinized and centrifuged at 200 g for 5 minutes. The protein fraction is extracted with a hypotonic lysis buffer (10 mM Tris-Cl pH 7.5, 10 mM NaCl, 1 mM MgCl2, 1 mM DTT, protease inhibitors) and assayed with bicinchoninic acid (Sigma-Aldrich). Ten micrograms of this fraction are deposited on polyacrylamide gel of Laemmli type (U. K. Laemmli, Nature 1970, 227, 680) to separate the proteins, which are then transferred onto polyvinyl fluoride (pvdf) membrane for 60 minutes at 100 mA in a 10 mM CAPS pH 11.1 […] buffer, 10% methanol (Sigma-Aldrich). The pvdf membrane is then saturated for 30 minutes in a solution of powdered skimmed milk at 1% (w/v) in TBST buffer (Tris buffer saline 1×, Tween 20 0.1%). […] Revelation is performed using the “immobilon western” kit (Millipore) with the QuantityOne software (Biorad). […]

SMILES	type of inhibition of ABCG2 (ABCG2 [1])	increase of cytotoxicity on NIH-3T3 cells (NIH-3T3 cells; above 5 times and up to 40 times its IC50, expressing or not ABCB1)	harmlessness on NIH-3T3 cells (NIH-3T3 cells; cells expressing or not ABCB1)	cytotoxicity on NIH-3T3 cells (NIH-3T3 cells; up to 5 times its IC50)	level of expression of ABCG2 (ABCG2 [2]; HEK293 BCRP cells, vs DMSO)	level of expression of tubulin (control protein) (ABCG2 [2]; HEK293 cells)	Ki (ABCG2 [1]; ABCG2, mitoxantrone efflux, from adjustment of FIG. 2D or 2E, read-out: inhibition constant K) [nM]
CC(C)(C)OC(=O)N[C@H](CNN(CCCCCCNC(=O)OCc1ccccc1)C(=O)OCc1ccccc1)CC(=O)OCc1ccccc1 [IB.11, Benzyl ester of (3S)-4-[2-benzyloxycarbonyl-2-(6-benzyloxycarbonylaminohexyl)hydrazino]-3-tert-butoxycarbonyl-aminobutyric acid]	noncompetitive						
CC(C)(C)OC(=O)N[C@H](CNN(CCCCCCNC(=O)OCc1ccccc1)C(=O)OC(C)(C)C)CC(=O)OCc1ccccc1 [IB.1, Benzyl ester of (3S)-4-[2-(6-benzyloxycarbonylaminohexyl)-2-tert-butoxycarbonylhydrazino]-3-tert-butoxycarbonylaminobutyric acid]		30-40%	harmlessness	negligible			
CC(C)(C)OC(=O)NN(C(=O)N[C@@H](CCCCNC(=O)OCc1ccccc1)C(=O)OC(C)(C)C)c1cccc(C(=O)OCc2ccccc2)c1 [IA.2, tert-Butyl ester of (2S)-6-(benzyloxycarbonylamino)-2-[1-(3′-(benzyloxycarbonyl)phenyl)-2-(tert-butoxycarbonyl)hydrazino-carbonylamino]hexanoic acid]	noncompetitive inhibitor				reduces the level of expression; also recorded: decrease in the level of expression	without affecting	~1000
